# Assay results from patent US20250376461A1, “INDAZOLE DERIVATIVES FOR TREATING TRPM3-MEDIATED DISORDERS” (Katholieke Universiteit Leuven, priority 2022, published 2025).
# Molecular target: T1, mouse TRPM3α2 (mTRPM3) ion channel (Mus musculus, UniProt J9SQF3)
# T1 construct: expressed in transfected cells; host or cells: flip-in HEK293
# Experiment: TRPM3 ion channel driven Ca2+ uptake, Fluo-4 AM assay, mTRPM3alpha2 overexpressing flip-in HEK293 cells stimulated with pregnenolone sulfate (50 μM)
# Format: cell-based
# Settings: mTRPM3 overexpressing HEK293 cells stimulated with pregnenolone sulfate (50 μM), activity ranges A, B, C
# Protocol: Monitoring the TRPM3 Ion Channel Driven Ca2+ Uptake.
# In order to monitor the inhibition of the mouse TRPM3α2 (mTRPM3) ion channel by the compounds of the invention, a cellular system making use of an mTRPM3alpha2 or hTRPM3 overexpressing cell line (flip-in HEK293) was used. The TRPM3 channel was stimulated/opened with Pregnenolone sulfate (PS) (50 μM) which results in Ca^2+ influx.
# For mTRPM3, the intracellular Ca^2+ was measured with a Calcium responsive dye, Fluor-4 AM ester (Invitrogen). Cells were cultured until a confluence of 80-90%, washed with Versene (Invitrogen) and detached from the surface by a short incubation with 0.05% Trypsin (Invitrogen). The trypsination process was stopped by the addition of complete cell culture medium (DMEM, glutamax, 10% FCS, NEAA, Pen-Strep). Cells were collected and resuspended in Krebs buffer without Calcium at RT.
# Prior the cell seeding (±2000 cells/well into a black, 384 well plate (Greiner)) the diluted compound was added in the assay plate, together with the PS dissolved in Krebs buffer containing Calcium. […] Directly after cell addition the plates were read on an Envision fluorescence reader (Perkin Elmer) by an Excitation of 485 nm and emission at 535 nm.
# Channel inhibition was calculated compared to a non-PS stimulated control versus a condition stimulated with PS (50 μM) with vehicle. The ability of the compounds of the invention to inhibit this activity was determined as: Percentage inhibition=[1−((RFU determined for sample with test compound present−RFU determined for sample with positive control inhibitor) divided by (RFU determined in the presence of vehicle−RFU determined for sample with positive control inhibitor))]*100.
# The activities of the Example compounds cpd 001-262 tested are depicted in the table below. All tested compounds show an activity in the Fluo-4 AM assay. The activity ranges A, B and C refer to IC50 values in the Fluo-4 AM assay as follows: “A”: IC50<1 μM; “B”: 1 μM≤IC50≤20 μM and “C”: IC50>20 μM.
# T1 sequence (J9SQF3 1-1709 isoform J9SQF3-12): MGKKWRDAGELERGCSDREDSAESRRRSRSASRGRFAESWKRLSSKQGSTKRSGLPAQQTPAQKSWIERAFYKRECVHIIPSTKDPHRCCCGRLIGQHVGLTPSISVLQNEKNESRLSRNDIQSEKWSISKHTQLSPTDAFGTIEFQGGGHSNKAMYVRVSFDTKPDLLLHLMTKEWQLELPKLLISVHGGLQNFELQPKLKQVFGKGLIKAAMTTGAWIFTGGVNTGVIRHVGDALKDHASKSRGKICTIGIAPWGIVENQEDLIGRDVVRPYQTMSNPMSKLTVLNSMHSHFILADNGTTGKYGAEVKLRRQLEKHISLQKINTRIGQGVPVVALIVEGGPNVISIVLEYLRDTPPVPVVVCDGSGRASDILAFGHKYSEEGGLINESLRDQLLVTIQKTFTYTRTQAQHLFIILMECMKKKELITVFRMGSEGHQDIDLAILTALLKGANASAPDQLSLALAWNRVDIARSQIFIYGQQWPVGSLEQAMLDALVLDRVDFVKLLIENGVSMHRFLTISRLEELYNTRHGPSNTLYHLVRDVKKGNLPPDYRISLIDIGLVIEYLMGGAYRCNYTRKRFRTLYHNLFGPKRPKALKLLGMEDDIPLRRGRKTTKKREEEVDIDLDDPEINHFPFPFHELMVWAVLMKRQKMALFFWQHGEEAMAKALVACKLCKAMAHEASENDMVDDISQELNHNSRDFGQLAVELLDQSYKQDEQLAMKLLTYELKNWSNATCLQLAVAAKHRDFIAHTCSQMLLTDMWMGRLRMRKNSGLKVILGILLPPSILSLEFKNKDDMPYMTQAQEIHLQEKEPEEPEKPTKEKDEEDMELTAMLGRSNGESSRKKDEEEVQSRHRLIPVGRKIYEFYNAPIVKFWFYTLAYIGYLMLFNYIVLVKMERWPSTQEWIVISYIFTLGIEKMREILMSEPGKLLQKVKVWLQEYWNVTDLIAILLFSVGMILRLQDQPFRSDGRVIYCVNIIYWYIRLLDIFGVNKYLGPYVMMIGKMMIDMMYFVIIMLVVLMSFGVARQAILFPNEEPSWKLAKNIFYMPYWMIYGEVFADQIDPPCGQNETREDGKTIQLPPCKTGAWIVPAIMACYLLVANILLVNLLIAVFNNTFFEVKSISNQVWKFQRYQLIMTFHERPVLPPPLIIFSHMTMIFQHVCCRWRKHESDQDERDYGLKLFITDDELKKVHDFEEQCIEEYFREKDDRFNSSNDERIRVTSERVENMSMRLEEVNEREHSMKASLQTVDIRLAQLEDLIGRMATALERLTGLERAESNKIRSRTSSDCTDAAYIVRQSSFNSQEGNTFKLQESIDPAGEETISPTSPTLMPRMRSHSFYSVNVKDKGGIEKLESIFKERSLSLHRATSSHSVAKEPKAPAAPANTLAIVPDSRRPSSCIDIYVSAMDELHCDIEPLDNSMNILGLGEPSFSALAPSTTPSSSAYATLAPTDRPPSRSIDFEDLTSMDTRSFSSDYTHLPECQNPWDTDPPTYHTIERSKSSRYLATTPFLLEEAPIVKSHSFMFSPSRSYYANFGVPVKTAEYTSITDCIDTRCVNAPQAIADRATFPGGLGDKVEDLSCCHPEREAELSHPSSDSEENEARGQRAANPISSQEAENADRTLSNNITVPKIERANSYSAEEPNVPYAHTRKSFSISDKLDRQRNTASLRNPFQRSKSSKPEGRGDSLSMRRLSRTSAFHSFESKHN
row,SMILES,IC50 [µM]
1,"Cn1nc2ccc(OCc3ccccc3)cc2c1C(=O)NC1CNCC1(F)F (single isomer, unassigned) [Cpd 002 - En1, 5-(benzyloxy)-N-(4,4-difluoropyrrolidin-3-yl)-2-methyl-2H-indazole-3-carboxamide]",> 20
2,"Cn1nc2ccc(OCc3ccccc3)cc2c1C(=O)NC1CNCC1(F)F (single isomer, unassigned) [Cpd 002 - En2, 5-(benzyloxy)-N-(4,4-difluoropyrrolidin-3-yl)-2-methyl-2H-indazole-3-carboxamide]",1 to 20
3,"Cn1nc2ccc(OCc3cccnc3C(F)(F)F)cc2c1C(=O)NC1CCNCC1(F)F (single isomer, unassigned) [Cpd 003 - En1]",< 1
4,"Cn1nc2ccc(OCc3cccnc3C(F)(F)F)cc2c1C(=O)NC1CCNCC1(F)F (single isomer, unassigned) [Cpd 003 - En2]",1 to 20
5,"Cn1nc2ccc(OCc3cccnc3C(F)(F)F)cc2c1C(=O)N[C@@H]1COC[C@@H]1O (single isomer, unassigned) [Cpd 010 - Dia1]",1 to 20
6,"Cn1nc2ccc(OCc3ccccc3)cc2c1C(=O)N[C@@H]1COC[C@H]1O (single isomer, unassigned) [Cpd 011 - Dia2]",1 to 20
7,"Cn1nccc1COc1ccc2nn(C)c(C(=O)NC3COCC3O)c2c1 (single isomer, unassigned) [Cpd 056 - Dia1]",1 to 20
8,"Cc1ncsc1COc1ccc2nn(C)c(C(=O)NC3COCC3O)c2c1 (single isomer, unassigned) [Cpd 080 - Dia2]",> 20
9,"Cn1nc2ccc(OCc3ccccn3)cc2c1C(=O)NC1CCNCC1(F)F (single isomer, unassigned) [Cpd 128 - En1]",1 to 20
10,"Cc1ncsc1COc1ccc2nn(C)c(C(=O)NC3CCNCC3(F)F)c2c1 (single isomer, unassigned) [Cpd 132 - En1]",1 to 20
11,"Cc1ncsc1COc1ccc2nn(C)c(C(=O)NC3CCNCC3(F)F)c2c1 (single isomer, unassigned) [Cpd 132 - En2]",1 to 20
12,"Cc1ncsc1COc1ccc2nn(C)c(C(=O)NC(C)(CO)C(N)=O)c2c1 (single isomer, unassigned) [Cpd 151 - En1]",< 1
13,"Cc1ncsc1COc1ccc2nn(C)c(C(=O)NC(C)(CO)C(N)=O)c2c1 (single isomer, unassigned) [Cpd 151 - En2]",1 to 20
14,"Cn1nccc1COc1ccc2nn(C)c(C(=O)NC(C)(CO)C(N)=O)c2c1 (single isomer, unassigned) [Cpd 154 - En1]",> 20
15,"Cn1nccc1COc1ccc2nn(C)c(C(=O)NC(C)(CO)C(N)=O)c2c1 (single isomer, unassigned) [Cpd 154 - En2]",< 1
16,"Cc1ncc(COc2ccc3nn(C)c(C(=O)NC(C)(CO)C(N)=O)c3c2)s1 (single isomer, unassigned) [Cpd 157 - En2, 3-hydroxy-2-methyl-2-({2-methyl-5-[(2-methyl-1,3-thiazol-5-yl)methoxy]-2H-indazol-3-yl}formamido)propanamide]",< 1
17,"Cn1nc2ccc(OCC3CCOCC3)cc2c1C(=O)NC(C)(CO)C(N)=O (single isomer, unassigned) [Cpd 158 - En2]",> 20
18,"Cn1nc2ccc(OCC3CCC3)cc2c1C(=O)NC1(CO)CCNC1=O (single isomer, unassigned) [Cpd 159 - En2]",< 1
19,"Cc1ncsc1COc1ccc2nn(C)c(C(=O)NC3(CO)CCNC3=O)c2c1 (single isomer, unassigned) [Cpd 163 - En2, N-[3-(hydroxymethyl)-2-oxopyrrolidin-3-yl]-2-methyl-5-[(4-methyl-1,3-thiazol-5-yl)methoxy]-2H-indazole-3-carboxamide]",1 to 20
20,"Cc1ccc(COc2ccc3nn(C)c(C(=O)NC4(C(N)=O)CCOC4)c3c2)cn1 (single isomer, unassigned) [Cpd 164 - En1, N-(3-carbamoyloxolan-3-yl)-2-methyl-5-[(6-methylpyridin-3-yl)methoxy]-2H-indazole-3-carboxamide]",1 to 20
21,"Cn1nc2ccc(OCC3CC3)cc2c1C(=O)NC1(C(N)=O)CCOC1 (single isomer, unassigned) [Cpd 165 - En1]",1 to 20
22,"Cn1nc2ccc(OCC3CC3)cc2c1C(=O)NC1(C(N)=O)CCOC1 (single isomer, unassigned) [Cpd 165 - En2]",> 20
23,"Cn1nc2ccc(OCc3ccccc3F)cc2c1C(=O)NC1(C(N)=O)CCOC1 (single isomer, unassigned) [Cpd 166 - En2]",< 1
24,"Cn1nc2ccc(OCc3cccnc3)cc2c1C(=O)NC1(C(N)=O)CCOC1 (single isomer, unassigned) [Cpd 168 - En2]",< 1

# Continued, values first:
row,IC50 [µM],SMILES
1,1 to 20,"Cn1nc2ccc(OCc3cccnc3C(F)(F)F)cc2c1C(=O)N[C@@H]1COC[C@@H]1O (single isomer, unassigned) [Cpd 010 - Dia2]"
2,1 to 20,"Cn1nc2ccc(OCc3ccccc3)cc2c1C(=O)N[C@@H]1COC[C@H]1O (single isomer, unassigned) [Cpd 011 - Dia1]"
3,> 20,"Cn1nccc1COc1ccc2nn(C)c(C(=O)NC3COCC3O)c2c1 (single isomer, unassigned) [Cpd 056 - Dia2]"
4,1 to 20,"Cc1ncsc1COc1ccc2nn(C)c(C(=O)NC3COCC3O)c2c1 (single isomer, unassigned) [Cpd 080 - Dia1]"
5,> 20,"Cn1nc2ccc(OCc3ccccn3)cc2c1C(=O)NC1CCNCC1(F)F (single isomer, unassigned) [Cpd 128 - En2]"
6,> 20,"Cn1ccc(COc2ccc3nn(C)c(C(=O)NC(C)(CO)C(N)=O)c3c2)n1 (single isomer, unassigned) [Cpd 155 - En1]"
7,1 to 20,"Cn1ccc(COc2ccc3nn(C)c(C(=O)NC(C)(CO)C(N)=O)c3c2)n1 (single isomer, unassigned) [Cpd 155 - En2]"
8,1 to 20,"Cc1ncc(COc2ccc3nn(C)c(C(=O)NC(C)(CO)C(N)=O)c3c2)s1 (single isomer, unassigned) [Cpd 157 - En1, 3-hydroxy-2-methyl-2-({2-methyl-5-[(2-methyl-1,3-thiazol-5-yl)methoxy]-2H-indazol-3-yl}formamido)propanamide]"
9,1 to 20,"Cn1nc2ccc(OCC3CCOCC3)cc2c1C(=O)NC(C)(CO)C(N)=O (single isomer, unassigned) [Cpd 158 - En1]"
10,1 to 20,"Cn1nc2ccc(OCC3CCC3)cc2c1C(=O)NC1(CO)CCNC1=O (single isomer, unassigned) [Cpd 159 - En1]"
11,1 to 20,"Cc1nc(COc2ccc3nn(C)c(C(=O)NC(C)(CO)C(N)=O)c3c2)cs1 (single isomer, unassigned) [Cpd 160 - En1]"
12,< 1,"Cc1nc(COc2ccc3nn(C)c(C(=O)NC(C)(CO)C(N)=O)c3c2)cs1 (single isomer, unassigned) [Cpd 160 - En2]"
13,< 1,"Cn1nc2ccc(OCC3CC3)cc2c1C(=O)NC1(CO)CCNC1=O (single isomer, unassigned) [Cpd 161 - En1]"
14,> 20,"Cn1nc2ccc(OCC3CC3)cc2c1C(=O)NC1(CO)CCNC1=O (single isomer, unassigned) [Cpd 161 - En2]"
15,1 to 20,"Cn1nc2ccc(OCc3ccccn3)cc2c1C(=O)NC(C)(CO)C(N)=O (single isomer, unassigned) [Cpd 162 - En1]"
16,< 1,"Cn1nc2ccc(OCc3ccccn3)cc2c1C(=O)NC(C)(CO)C(N)=O (single isomer, unassigned) [Cpd 162 - En2]"
17,< 1,"Cc1ncsc1COc1ccc2nn(C)c(C(=O)NC3(CO)CCNC3=O)c2c1 (single isomer, unassigned) [Cpd 163 - En1, N-[3-(hydroxymethyl)-2-oxopyrrolidin-3-yl]-2-methyl-5-[(4-methyl-1,3-thiazol-5-yl)methoxy]-2H-indazole-3-carboxamide]"
18,1 to 20,"Cc1ccc(COc2ccc3nn(C)c(C(=O)NC4(C(N)=O)CCOC4)c3c2)cn1 (single isomer, unassigned) [Cpd 164 - En2, N-(3-carbamoyloxolan-3-yl)-2-methyl-5-[(6-methylpyridin-3-yl)methoxy]-2H-indazole-3-carboxamide]"
19,1 to 20,"Cn1nc2ccc(OCc3ccccc3F)cc2c1C(=O)NC1(C(N)=O)CCOC1 (single isomer, unassigned) [Cpd 166 - En1]"
20,> 20,"Cn1nc2ccc(OCC3COC3)cc2c1C(=O)NC(C)(CO)C(N)=O (single isomer, unassigned) [Cpd 167 - En1]"
21,> 20,"Cn1nc2ccc(OCC3COC3)cc2c1C(=O)NC(C)(CO)C(N)=O (single isomer, unassigned) [Cpd 167 - En2]"
22,1 to 20,"Cn1nc2ccc(OCc3cccnc3)cc2c1C(=O)NC1(C(N)=O)CCOC1 (single isomer, unassigned) [Cpd 168 - En1]"
